Starred links: 1 amine or outer side, 2 acyl side, 3 side chain; linkers in the order of their positions; H or OH if unused. Positions of bridges follow the written chain, without caps; N, C: chain ends. Non-standard residues stand in square brackets, D forms with d. Residues, ends and D or L forms follow the SMILES beside them. Groups on a side chain read outwards from the residue. *: point of attachment. Ala(piperidin-4-yl) = O=C([C@H](CC1CCN([*:3])CC1)N[*:1])[*:2]; DOTA = O=C(O)CN1CCN(CC(=O)O)CCN(CC(=O)*)CCN(CC(=O)O)CC1; Trp(4-OMe) = COc1cccc2[nH]cc(C[C@H](N)C(=O)O)c12; Phe(4-COOH) = N[C@@H](Cc1ccc(C(=O)O)cc1)C(=O)O; Trp(5-F) = N[C@@H](Cc1c[nH]c2ccc(F)cc12)C(=O)O; Trp(5-Me) = Cc1ccc2[nH]cc(C[C@H](N)C(=O)O)c2c1; Trp(1-Me) = Cn1cc(C[C@H](N)C(=O)O)c2ccccc21; Pro(cis-4-F) = O=C(O)[C@@H]1C[C@H](F)CN1; 1Nal = N[C@@H](Cc1cccc2ccccc12)C(=O)O; Ala(4-THP) = N[C@@H](CC1CCOCC1)C(=O)O; AEF = NCCOc1ccc(C[C@H](N)C(=O)O)cc1; Val(3-OH) = CC(C)(O)[C@H](N)C(=O)O; 4Pal = N[C@@H](Cc1ccncc1)C(=O)O; Chg = N[C@H](C(=O)O)C1CCCCC1; PEG4 = NCCOCCOCCOCCOCCC(=O)O; Tle = CC(C)(C)[C@H](N)C(=O)O; hLeu = CC(C)CC[C@H](N)C(=O)O; Sar = CNCC(=O)O

This assay concerns the target T1, human 4lg B7-H3 (Homo sapiens, UniProt Q5ZPR3).
T1 sequence (Q5ZPR3 29-534): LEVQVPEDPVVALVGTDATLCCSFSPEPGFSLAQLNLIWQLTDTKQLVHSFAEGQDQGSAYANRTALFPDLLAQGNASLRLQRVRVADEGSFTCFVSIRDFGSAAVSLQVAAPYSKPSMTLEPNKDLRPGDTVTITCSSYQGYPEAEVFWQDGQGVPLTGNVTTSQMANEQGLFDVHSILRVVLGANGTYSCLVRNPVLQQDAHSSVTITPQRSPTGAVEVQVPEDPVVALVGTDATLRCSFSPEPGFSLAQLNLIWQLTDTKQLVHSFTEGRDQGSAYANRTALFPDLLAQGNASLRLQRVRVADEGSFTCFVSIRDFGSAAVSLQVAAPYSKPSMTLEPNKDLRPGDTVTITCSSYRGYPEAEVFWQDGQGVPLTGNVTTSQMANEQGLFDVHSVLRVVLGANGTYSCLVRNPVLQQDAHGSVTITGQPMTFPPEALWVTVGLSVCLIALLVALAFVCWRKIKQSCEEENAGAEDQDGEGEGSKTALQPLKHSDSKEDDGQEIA
Put plainly: Affinity determination by surface plasmon resonance (SPR) to 4Ig B7-H3. To be noted: 4Ig B7-H3.

Setting [1] is: SPR KD—25° C., 25° C. flow cell temperature.
Setting [2] is: SPR KD—37° C., 37° C. flow cell temperature.

The term Kd denotes the concentration at which binding is half-saturated. Read a low Kd as a tighter complex. As to `CC(=O)N[C@@H](CCC(C)C)C(=O)N[C@@H](Cc1ccc(O)cc1)C(=O)N[C@H]1CSSC[C@@H](C(=O)N[C@@H](Cc2cn(C)c3ccccc23)C(=O)N[C@@H](Cc2ccccc2)C(=O)N[C@H](C(=O)N[C@H](CCCCNC(=O)CN2CCN(CC(=O)O)CCN(CC(=O)O)CCN(CC(=O)O)CC2)C(N)=O)[C@@H](C)O)NC(=O)[C@H](Cc2ccc(O)cc2)NC(=O)[C@H](C(C)C)NC(=O)[C@H](CC(=O)O)NC(=O)[C@H](Cc2ccc(O)cc2)NC(=O)[C@H](CCCCN)NC(=O)CNC(=O)[C@H](C(C)C)NC1=O` [compound 150, Ac-hLeu-Y-C-V-G-K-Y-D-V-Y-C-Trp(Me)-F-Thr-dLys(DOTA)-CONH2] (Ac-[hLeu]YCVGKYDVYC[Trp(1-Me)]FT[dK](DOTA)-NH2; disulfide 3-11), the Kd under setting [1] is under 1 nM.

Compound `CC(=O)N[C@@H](CCC(C)C)C(=O)N[C@@H](Cc1ccc(O)cc1)C(=O)N[C@H]1CSSC[C@@H](C(=O)N[C@@H](Cc2c[nH]c3ccc(F)cc23)C(=O)N[C@@H](Cc2ccccc2)C(=O)N[C@H](C(=O)N[C@H](CO)C(=O)O)C(C)(C)O)NC(=O)[C@H](Cc2ccc(O)cc2)NC(=O)[C@H](C(C)C)NC(=O)[C@H](CC(=O)O)NC(=O)[C@H](CC2CCN(C(=O)CCOCCOCCOCCOCCNC(=O)CN3CCN(CC(=O)O)CCN(CC(=O)O)CCN(CC(=O)O)CC3)CC2)NC(=O)[C@H](CC2CCOCC2)NC(=O)CNC(=O)[C@H](C(C)(C)C)NC1=O` [compound 484, Ac-hLeu-Y-C-Tbg-G-ThpA-Pip(PEG4-DOTA)Ala-D-V-Y-C-5FW-F-hydroxyVal-dSer-COOH] (Ac-[hLeu]YC[Tle]G[Ala(4-THP)][Ala(piperidin-4-yl)]([PEG4-DOTA])DVYC[Trp(5-F)]F[Val(3-OH)][dS]-OH; disulfide 3-11) returned a Kd under setting [2] of under 1 nM.

Compound `CC(=O)N[C@@H](CCC(C)C)C(=O)N[C@@H](Cc1ccc(O)cc1)C(=O)N[C@H]1CSSC[C@@H](C(=O)N[C@@H](Cc2cccc3ccccc23)C(=O)N[C@@H](Cc2ccccc2)C(=O)N2C[C@@H](F)C[C@H]2C(=O)O)NC(=O)[C@H](Cc2ccc(O)cc2)NC(=O)[C@H](C(C)C)NC(=O)[C@H](CC(=O)O)NC(=O)[C@H](Cc2ccncc2)NC(=O)[C@H](CCCCNC(=O)CN2CCN(CC(=O)O)CCN(CC(=O)O)CCN(CC(=O)O)CC2)NC(=O)CNC(=O)[C@H](C(C)(C)C)NC1=O` [compound 263, Ac-hLeu-Y-C-Tbg-G-Lys(DOTA)-4PyA-D-V-Y-C-1Nal-F-cis4FPro-CONH2] (Ac-[hLeu]YC[Tle]GK(DOTA)[4Pal]DVYC[1Nal]F[Pro(cis-4-F)]-OH; disulfide 3-11) had a Kd under setting [1] of 10 to 100 nM.

Compound `CC(=O)N[C@@H](CCC(C)C)C(=O)N[C@@H](Cc1ccc(O)cc1)C(=O)N[C@H]1CSSC[C@@H](C(=O)N[C@@H](Cc2c[nH]c3ccc(C)cc23)C(=O)N[C@@H](Cc2ccccc2)C(=O)N[C@H](C(=O)N[C@H](CCCCNC(=O)CN2CCN(CC(=O)O)CCN(CC(=O)O)CCN(CC(=O)O)CC2)C(=O)O)C(C)(C)O)NC(=O)[C@H](Cc2ccc(O)cc2)NC(=O)[C@H](C(C)C)NC(=O)[C@H](CC(=O)O)NC(=O)[C@H](CC2CCOCC2)NC(=O)[C@H](CC2CCNCC2)NC(=O)CNC(=O)[C@H](C(C)(C)C)NC1=O` [compound 471, Ac-hLeu-Y-C-Tbg-G-PipAla-ThpA-D-V-Y-C-5MeW-F-hydroxyVal-dLys(DOTA)-COOH] (Ac-[hLeu]YC[Tle]G[Ala(piperidin-4-yl)][Ala(4-THP)]DVYC[Trp(5-Me)]F[Val(3-OH)][dK](DOTA)-OH; disulfide 3-11) displayed a Kd under setting [2] of 1 to 10 nM.

The compound `CC(=O)N[C@@H](CCC(C)C)C(=O)N[C@@H](Cc1ccc(O)cc1)C(=O)N[C@H]1CSSC[C@@H](C(=O)N[C@@H](Cc2c[nH]c3ccccc23)C(=O)N[C@@H](Cc2ccccc2)C(=O)N[C@H](C(=O)N[C@H](CCCCNC(=O)CN2CCN(CC(=O)O)CCN(CC(=O)O)CCN(CC(=O)O)CC2)C(N)=O)[C@@H](C)O)NC(=O)[C@H](Cc2ccc(O)cc2)NC(=O)[C@H](C(C)C)NC(=O)[C@H](CC(=O)O)NC(=O)[C@H](Cc2ccc(C(=O)O)cc2)NC(=O)[C@H](CCCCN)NC(=O)CN(C)C(=O)[C@H](C(C)(C)C)NC1=O` [compound 140, Ac-hLeu-Y-C-Tbg-Sar-K-4COOHPhe-D-V-Y-C-W-F-Thr-dLys(DOTA)-CONH2] (Ac-[hLeu]YC[Tle][Sar]K[Phe(4-COOH)]DVYCWFT[dK](DOTA)-NH2; disulfide 3-11) gave a Kd under setting [1] of 1 to 10 nM.

Turning to `CC(=O)N[C@@H](CCC(C)C)C(=O)N[C@@H](Cc1ccc(O)cc1)C(=O)N[C@H]1CSSC[C@@H](C(=O)N[C@@H](Cc2cccc3ccccc23)C(=O)N[C@@H](Cc2ccccc2)C(=O)N[C@H](C(=O)N[C@H](CCCCNC(=O)CN2CCN(CC(=O)O)CCN(CC(=O)O)CCN(CC(=O)O)CC2)C(N)=O)[C@@H](C)O)NC(=O)[C@H](Cc2ccc(O)cc2)NC(=O)[C@H](C2CCCCC2)NC(=O)[C@H](CC(=O)O)NC(=O)[C@H](Cc2ccc(O)cc2)NC(=O)[C@H](CCCCN)NC(=O)CNC(=O)[C@H](C(C)(C)C)NC1=O` [compound 180, Ac-hLeu-Y-C-Tbg-G-K-Y-D-Chg-Y-C-1Nal-F-Thr-dLys(DOTA)-CONH2] (Ac-[hLeu]YC[Tle]GKYD[Chg]YC[1Nal]FT[dK](DOTA)-NH2; disulfide 3-11), the Kd under setting [1] is 1 to 10 nM.

Take `CC(=O)N[C@@H](CCC(C)C)C(=O)N[C@@H](Cc1ccc(O)cc1)C(=O)N[C@H]1CSSC[C@@H](C(=O)N[C@@H](Cc2c[nH]c3ccc(F)cc23)C(=O)N[C@@H](Cc2ccccc2)C(=O)N[C@H](C(=O)N[C@H](CCCCNC(=O)CN2CCN(CC(=O)O)CCN(CC(=O)O)CCN(CC(=O)O)CC2)C(=O)O)[C@@H](C)O)NC(=O)[C@H](Cc2ccc(O)cc2)NC(=O)[C@H](C(C)C)NC(=O)[C@H](CC(=O)O)NC(=O)[C@H](CC2CCOCC2)NC(=O)[C@H](CCCCN)NC(=O)CNC(=O)[C@H](C(C)C)NC1=O` [compound 331, Ac-hLeu-Y-C-V-G-K-ThpA-D-V-Y-C-5FW-F-Thr-dLys(DOTA)-COOH] (Ac-[hLeu]YCVGK[Ala(4-THP)]DVYC[Trp(5-F)]FT[dK](DOTA)-OH; disulfide 3-11): the Kd under setting [1] was under 1 nM.

`COc1cccc2[nH]cc(C[C@H](NC(=O)[C@@H]3CSSC[C@H](NC(=O)[C@H](Cc4ccc(O)cc4)NC(=O)[C@H](CCC(C)C)NC(C)=O)C(=O)N[C@@H](C(C)(C)C)C(=O)NCC(=O)N[C@@H](CC4CCNCC4)C(=O)N[C@@H](CC4CCOCC4)C(=O)N[C@@H](CC(=O)O)C(=O)N[C@@H](C(C)C)C(=O)N[C@@H](Cc4ccc(O)cc4)C(=O)N3)C(=O)N[C@@H](Cc3ccccc3)C(=O)N[C@H](C(=O)N[C@H](CCCCNC(=O)CN3CCN(CC(=O)O)CCN(CC(=O)O)CCN(CC(=O)O)CC3)C(=O)O)C(C)(C)O)c12` [compound 493, Ac-hLeu-Y-C-Tbg-G-PipAla-ThpA-D-V-Y-C-4MeOW-F-hydroxyVal-dLys(DOTA)-COOH] (Ac-[hLeu]YC[Tle]G[Ala(piperidin-4-yl)][Ala(4-THP)]DVYC[Trp(4-OMe)]F[Val(3-OH)][dK](DOTA)-OH; disulfide 3-11): the Kd under setting [2] lay in the range of 1 to 10 nM.

As to `CC(=O)N[C@@H](CCC(C)C)C(=O)N[C@@H](Cc1ccc(O)cc1)C(=O)N[C@H]1CSSC[C@@H](C(=O)N[C@@H](Cc2c[nH]c3ccc(F)cc23)C(=O)N[C@@H](Cc2ccccc2)C(=O)N2CCC[C@H]2C(N)=O)NC(=O)[C@H](Cc2ccc(O)cc2)NC(=O)[C@H](C(C)C)NC(=O)[C@H](CC(=O)O)NC(=O)[C@H](Cc2ccc(OCCNC(=O)CN3CCN(CC(=O)O)CCN(CC(=O)O)CCN(CC(=O)O)CC3)cc2)NC(=O)[C@H](CC2CCNCC2)NC(=O)CNC(=O)[C@H](C(C)C)NC1=O` [compound 301, Ac-hLeu-Y-C-V-G-PipAla-AEF(DOTA)-D-V-Y-C-5FW-F-Pro-CONH2] (Ac-[hLeu]YCVG[Ala(piperidin-4-yl)][AEF](DOTA)DVYC[Trp(5-F)]FP-NH2; disulfide 3-11), under setting [1], the Kd is under 1 nM.

Values taken from patent publication US20250296959A1, “B7-H3 TARGETING PEPTIDES AND CONSTRUCTS THEREOF” (Mariana Oncology Inc., priority 2024, published 2025).
